Assay results taken from patent US5994365A, “Substituted diazaanthracene compounds having pharmaceutical utility” (Diazans Limited, priority 1998, dated 1999).

Assays:
MRSA = test: Minimal bactericidal concentration (MBC), 99.9% kill; format: cell-based, Staphylococcus aureus; settings: Table F
Protocol: (§1) Broth microdilution was performed according to NCCLS guidelines. Microdilution panels were prepared using doubling dilutions of the dimer in ~250 μl plastic, 96-well trays. Inoculum suspension equal to a 0.5 McFarland standard were further diluted and added to the microdilution trays to achieve a final inoculum of 5×10^5 CFU/ml (5×10^4 CFU/well). Colony counts were performed to confirm the final inoculum, as well as its purity. Each strain was also tested in a growth control well containing only MHB for viability.
(§2) Various isolates were also tested for minimal bactericidal concentration (MBC) (see Tables D and F).
(§3) Subbed 50 μl of ≤5 clear wells

P. aeruginosa = test: Broth microdilution (NCCLS guidelines), MIC; format: cell-based, Pseudomonas aeruginosa; settings: Table A
Protocol: (§4) The dimer product of Example 15 was obtained in powder form. A stock solution of 1280 mg/L of the dimer in dimethylsulfoxide (DMSO) was prepared and stored at room temperature in a foil-wrapped screw-capped tube (10 ml). Subsequent dilutions were prepared using cation-adjusted Mueller-Hinton broth (50 mg/L Mg). […] It was resuspended upon mixing each time an aliquot was taken from the solution.
(§5) Approximately 100 varied bacterial isolates were initially collected for screening, along with 9 ATCC organisms. Forty additional strains of Staphylococcus species were subsequently screened. All isolates were identified according to generally accepted lab protocol.
as §1
(§6) Microdilution trays were incubated at 35° C. in ambient air or 5% CO2 as appropriate for 16-20 hours. After incubation, the minimal inhibitory concentration (MIC) was defined as the lowest concentration of the dimer with no evidence of growth. Since 10 or more strains of most organisms were tested; a range of MICs was determined for each organism, as well as the concentration of the dimer that inhibited 50% of the strains (MIC50) and the concentration of the dimer that inhibited 90% of the strains (MIC90).

[1] = test system: Coagulase negative Staph (Staneg); test: Broth microdilution (NCCLS guidelines), MIC; format: cell-based, Coagulase negative staphylococci; settings: for MIC50 / MIC90 / Range of MICs: 10 strains
Protocol: as §4, §5, §1, §6

S. aureus = test: Minimal bactericidal concentration (MBC), 99.9% kill; format: cell-based, Staphylococcus aureus
Protocol: as §1, §2
Subbed clear wells (50 μl) Inoculum 5 × 10^4 /well
99.9% kill = 50 cols/well
as §3

C. neoformans ATCC 90112 = test: In vitro antifungal susceptibility assay adapted from NCCLS (MIC); format: cell-based, Cryptococcus neoformans; settings: RPMI-1640
Protocol: Compounds of the invention also display antifungal activities. […] Using C. albicans ATCC® 90028, C. neoformans ATCC® 90112 and T. glabrata ATCC® 90030, the protocol is performed as follows:
Prepare 0.0128 g DAA in 10 mL dH2 O (or other if H2 O insoluble)=1280 μg/mL (stock solution). Dilute DAA stock solution 1:10 with RPMI-1640: 0.5 mL DAA stock solution+4.5 mL RPMI-1640=128 μg/mL (DAA working solution).
Inoculate rows A-H, columns 2-12 with 100 μl of RPMI-1640 using Eppendorf repeater pipette. Inoculate rows A-C columns 1 and 2 with 100 μl of 1st antibiotic (i.e. DAA-1) using electronic pipette. Inoculate rows E-G columns 1 and 2 with 100 μl of 2nd antibiotic (i.e. DAA-2) using electronic pipette. […] Plate is now ready for fungal inocula, which involves pipetting 100 μl of the inocula into all wells in rows A-C columns 1-12 and rows E-G columns 1-12. […]
Five colonies greater than 1 mm in diameter are suspended in a spectrophotometer cuvette containing 5 mL of sterile, 0.85% saline (colonies are obtained from 24 hrs. old Candida and Torulopsis cultures, while Cryptococcus colonies are chosen from 48 hrs. old cultures). Spectrophotometer is set to read % transmission at a wavelength of 530 nm, and is standardized using two cuvettes. […] Fungal inoculum is now prepared and ready to be introduced to microplates. […]

[2] = Precipitation of the dimer on dilution with Mueller-Hinton broth; format: physicochemical; settings: resuspended upon mixing
Protocol: as §4

Work on “10,10'-bis(3,6-dimethyl-5,10-dihydro-1,8-diazaanthracen-5-one) and 5,5'-bis(3,6-dimethyl-5,10-dihydro-1,8-diazaanthracen-10-one) [Example 15]” yielded an MBC (MRSA; MRSA 2) of 16 µg/mL, an MBC (MRSA; MRSA 4, skipped wells) of over 16 µg/mL and an MBC (MRSA; MRSA 6) of 2 µg/mL. For the same substance, the MIC50 (P. aeruginosa; 10 strains) was over 64 µg/mL, the MIC90 (P. aeruginosa; 10 strains) was over 64 µg/mL and the “Range of MICs” value (P. aeruginosa; 10 strains) was at least 64 mg/L. The MIC (P. aeruginosa; ATCC PA 27853 (×2)) was over 64 µg/mL, the MIC50 ([1]; Table A) was 0.125 µg/mL and the MIC90 ([1]; Table A) was 0.5 µg/mL. The “Range of MICs” value ([1]; Table A) was “.0625 to 1.0 mg/L”, the MIC50 ([1]; Table C, solution 14 days old) was 1 µg/mL and the MIC90 ([1]; Table C, solution 14 days old) was 2 µg/mL. For the same substance, the MIC ([1]; Table D, Staneg 1) was 2 µg/mL, the MIC ([1]; Table D, Staneg 2) was 0.25 µg/mL and the MIC ([1]; Table D, Staneg 3) was 2 µg/mL. It also gave an MIC ([1]; Table D, Staneg 4) of over 16 µg/mL, an MIC ([1]; Table D, Staneg 5) of 1 µg/mL and an MIC ([1]; Table D, Staneg 6) of 1 µg/mL. For the same substance, the MIC ([1]; Table D, Staneg 7) was 1 µg/mL, the MIC ([1]; Table D, Staneg 8) was 1 µg/mL and the MIC50 ([1]; Table E, fresh solution) was 0.25 µg/mL. For the same substance, the MIC90 ([1]; Table E, fresh solution) was 0.5 µg/mL, the “Range of MICs” value ([1]; Table E, fresh solution, in µg/mL) was 0.0625-4 and the MIC ([1]; Table F, Staneg 1) was 0.0625 µg/mL. The MIC ([1]; Table F, Staneg 4) was 4 µg/mL, the MIC ([1]; Table F, Staneg 7) was 0.25 µg/mL and the MIC50 ([1]; Table G) was 0.25 µg/mL. For the same substance, the MIC90 ([1]; Table G) was “.5 µg/mL”, the “Range of MICs” value ([1]; Table G) was 0.0625 to 4 mg/L and the MBC (S. aureus; Table D, S. aureus 1) was 2 µg/mL. It also gave an MBC (S. aureus; Table D, S. aureus 2) of over 16 µg/mL, an MBC (S. aureus; Table D, S. aureus 3) of 16 µg/mL and an MBC (S. aureus; Table D, S. aureus 4) of 8 µg/mL. It also gave an MBC (S. aureus; Table D, S. aureus 5) of over 16 µg/mL, an MBC (S. aureus; Table D, S. aureus 6, skipped wells) of over 16 µg/mL and an MBC (S. aureus; Table D, S. aureus 7) of over 16 µg/mL. For the same substance, the MBC (S. aureus; Table D, S. aureus 8, skipped wells) was over 16 µg/mL, the MBC (S. aureus; Table F, ATCC S. aureus 25923) was 4 µg/mL and the MBC (S. aureus; Table F, ATCC S. aureus 29213, skipped wells) was over 16 µg/mL. For the same substance, the MBC (S. aureus; Table F, Pip/Taz S. aureus 1) was 8 µg/mL, the MBC (S. aureus; Table F, Pip/Taz S. aureus 3) was 4 µg/mL and the MBC (S. aureus; Table F, Pip/Taz S. aureus 7) was 2 µg/mL. The MBC (S. aureus; Table F, S. aureus 1, skipped wells) was 4 µg/mL, the MBC (S. aureus; Table F, S. aureus 2) was 1 µg/mL and the MBC (S. aureus; Table F, S. aureus 8, skipped wells) was at least 8 µg/mL. For the same substance, the MBC (S. aureus; Table G footnote, ATCC 25923, methicillin susceptible) was 4 µg/mL, the MBC (S. aureus; Table G footnote, ATCC 29213, methicillin susceptible, skipped wells) was 16 µg/mL and the MIC (C. neoformans ATCC 90112) was 16 µg/mL. For the same substance, the precipitation ([2]; at 128 mg/L in MHB) was “Some precipitation occurred at 128 mg/L” and the “precipitation upon dilution with MH broth” value ([2]; from 1280 mg/L DMSO stock, after sitting for short periods) was “some precipitation upon dilution with MH broth”.
